A short description of data set [1]: Antiproliferative activity against human HCT116 cells assessed as inhibition of cell proliferation by MTT assay. It counts as functional, cell-based. The settings on record: HCT-116. For orientation: Tetrazolium dyes change colour on reduction, which living cells bring about.
Data set [2] has as its system HepG2. The data set is described as follows: Antiproliferative activity against human HepG2 cells assessed as inhibition of cell proliferation by MTT assay. It counts as functional, cell-based.
Data set [3] in a line: Antiproliferative activity against human SKOV3 cells assessed as inhibition of cell proliferation by MTT assay. It counts as functional, cell-based. The settings on record: SK-OV-3.
Data set [4] in a line: Antiproliferative activity against human PC3 cells assessed as inhibition of cell proliferation by MTT assay. The format is functional, cell-based. The conditions noted are these: PC-3.
Data set [5] has as its target T1, Tubulin alpha (Homo sapiens) (UniProt P0DPH7+P68366+Q71U36+P68363+Q9BQE3+Q6PEY2+A6NHL2+Q9NY65). The experiment in a line: Inhibition of tubulin alpha in human LoVo cells assessed as effect on microtubule spindles at 20 nM after 24 hrs. It counts as cell-based.
Data set [6] has as its target T1, Tubulin alpha (Homo sapiens). The data set is described as follows: Inhibition of tubulin alpha in human LoVo cells assessed as effect on microtubule spindles at 100 nM after 24 hrs. It counts as cell-based.
Data set [7] has the same target. The experiment in a line: Inhibition of tubulin alpha in human LoVo cells assessed as effect on tubulin intensity level at 20 nM. The format is cell-based.
Data set [8] has the same target. The experiment in a line: Inhibition of tubulin alpha in human LoVo cells assessed as effect on tubulin intensity level at 100 nM. The format is cell-based.
A short description of data set [9]: Antiproliferative activity against human BGC823 cells assessed as inhibition of cell proliferation at 10 uM by MTT assay. The format is functional. The settings on record: BGC-823.
Data set [10] deals with A549. The data set is described as follows: Antiproliferative activity against human A549 cells assessed as inhibition of cell proliferation at 10 uM by MTT assay. It counts as functional.
The test system of data set [11] is Jurkat. The data set is described as follows: Antiproliferative activity against human Jurkat cells assessed as inhibition of cell proliferation at 10 uM by MTT assay. The format is functional.
Data set [12] is described as follows: Antiproliferative activity against HEK293T cells assessed as inhibition of cell proliferation at 10 uM by MTT assay. It counts as cell-based, HEK-293T. The conditions noted are these: human.

Molecules are shown by their SMILES. Active and inactive are the calls of the source. The rule behind the calls is not given here.

Broadly, the IC50 is the point on the concentration scale where inhibition reaches its midpoint. A word on the inhibition: it is the change of the read-out against control, counted positive when it falls.

`O=S(=O)(c1ccc(-c2cnc(C3CC3)o2)cc1F)N1CCc2ccccc21`: the IC50 was 168 nM in data set [1], 18700 nM in data set [2] and 139 nM in data set [3].

Take `O=S(=O)(c1ccc(-c2cnc(C3CC3)o2)cc1)N1CCc2ccccc21`: the IC50 in data set [1] stood at 105 nM; in data set [4], 62 nM; in [2], 58 nM; in [3], 55 nM. The inhibition result in data set [5], in data set [6], in data set [7] and in [8] was “Active” each time.

On to `O=S(=O)(c1ccc(-c2cnc(C3CC3)o2)cc1Cl)N1CCc2ccccc21`, for which the IC50 in data set [1] amounted to 422 nM; in [2], 2180 nM; in data set [3] it was 220 nM.

`O=S(=O)(c1ccc(-c2cnc(C3CC3)s2)cc1)N1CCc2ccccc21`: the inhibition at 10 µM in [9] was 38.5%; in data set [10] it was -10.1%; in data set [11] it was 29.8%; in data set [12], -15.4%.

Consider `O=[N+]([O-])c1ccc2c(c1)CCN2S(=O)(=O)c1ccc(-c2cnc(C3CC3)o2)cc1`, for which the IC50 came to 1190 nM in data set [1], 1920 nM in data set [4], 1650 nM in [2] and 1300 nM in data set [3]. Also, the inhibition at 10 µM in data set [9] stood at 87.5%; in data set [10], 73.1%; in [11], 92.4%; in [12] it was 48.4%.

For `CS(=O)(=O)c1ccc2c(c1)CCN2S(=O)(=O)c1ccc(-c2cnc(C3CC3)o2)cc1`, the inhibition at 10 µM in data set [9] was 28.3%; in [10], 4.14%; in [11], 13%; in data set [12], 6.54%.

Regarding `Cc1ccc2c(c1)CCN2S(=O)(=O)c1ccc(-c2cnc(C3CC3)o2)cc1`, the IC50 in data set [1] turned out to be 233 nM; in [4], 189 nM; in data set [2], 295 nM; in [3], 201 nM. Besides, the inhibition at 10 µM in [9] worked out at 79.1%; in data set [10] it was 63.4%; in data set [11], 91.1%; in data set [12], 74.7%.

With `O=[N+]([O-])c1ccc2c(c1)N(S(=O)(=O)c1ccc(-c3cnc(C4CC4)o3)cc1)CC2`, the IC50 worked out at 181 nM in data set [1], 14 nM in data set [4], 273 nM in data set [2] and 114 nM in data set [3]. For the same compound, the inhibition at 10 µM in data set [9] is 97.7%; in data set [10] it was 50.3%; in [11], 96.7%; in data set [12] it was 77.8%.

In the case of `O=S(=O)(c1ccc(-c2cnc(C3CC3)o2)cc1)N1CCc2ccc(Cl)cc21`, the IC50 in data set [1] came to 255 nM; in data set [4], 138 nM; in data set [2], 248 nM; in data set [3], 144 nM. Besides, the inhibition at 10 µM in [9] amounted to 87.4%; in data set [10], 63.6%; in data set [11] it was 95.5%; in data set [12], 71.9%.

On to `O=S(=O)(c1ccc(-c2nnc(C3CC3)o2)cc1)N1CCc2ccccc21`, for which the inhibition at 10 µM is 27.7% in data set [9], 63.7% in [10], 31.7% in data set [11] and -13.8% in [12].

For `O=c1[nH]n(S(=O)(=O)c2ccc(-c3cnc(C4CC4)o3)cc2)c2ccccc12`, the IC50 in data set [1] was found to be 812 nM; in [4] it was 1460 nM; in [2], 1010 nM; in data set [3], 474 nM. Moreover, the inhibition at 10 µM amounted to 83.7% in data set [9], 66.5% in [10], 94.7% in data set [11] and 80.9% in [12].

With `O=S(=O)(c1ccc(-c2cnc(C3CC3)o2)cc1)N1CCCc2ccccc21`, the inhibition result in data set [5], in [6], in data set [7] and in [8] was “Active” throughout.

In the case of `O=S(=O)(c1ccc(-c2cnc(C3CC3)o2)cc1)N1CCCCC1`, the IC50 in [1], in data set [4], in data set [2] and in data set [3] was greater than 100000 nM throughout.

Regarding `O=S(=O)(c1ccc(-c2cnc(C3CC3)o2)cc1)n1ccc2ccccc21`, the inhibition at 10 µM in data set [9] was determined as 37.9%; in data set [10], 77.6%; in data set [11], 13.9%; in data set [12], 10.9%.

For `O=S(=O)(c1ccc(-c2cnc(C3CC3)o2)cc1)N1CCc2cc(F)ccc21`, the inhibition at 10 µM was found to be 18.3% in data set [9], 36.1% in data set [10], 24.3% in data set [11] and 25.7% in [12].

Consider `CC1Cc2ccccc2N1S(=O)(=O)c1ccc(-c2cnc(C3CC3)o2)cc1` (stereo unspecified), for which the concentration for half-maximal inhibition (IC50) in data set [1] was determined as 14400 nM; in data set [4], 20500 nM; in data set [2], 16800 nM; in data set [3], 12400 nM. Moreover, the inhibition at 10 µM in [9] stood at 81.8%; in data set [10], 52.4%; in data set [11] it was 89.9%; in data set [12] it was 61.3%.

As for `N#Cc1ccc2c(c1)CCN2S(=O)(=O)c1ccc(-c2cnc(C3CC3)o2)cc1`, the inhibition at 10 µM in data set [9] came out at 29.6%; in [10] it was 28.4%; in data set [11], 15.8%; in data set [12] it was 37.4%.

Take `C=Cc1ncc(-c2ccc(S(=O)(=O)N3CCc4ccccc43)cc2)o1`: the results for the IC50 in [1], in data set [2] and in data set [3] were 1330 nM, 25800 nM and 1130 nM, respectively.

In the case of `O=S(=O)(c1ccc(-c2cnc(C3CC3)o2)cc1)N1CC2(CCCCC2)c2ccccc21`, the IC50 in [1] amounted to 6130 nM; in [4], 6580 nM; in data set [2], 13600 nM; in data set [3] it was 5200 nM. Moreover, the inhibition at 10 µM was 84.1% in data set [9], 58.4% in [10], 94.8% in data set [11] and 76% in [12].

For the compound `COc1ccc2c(c1)CCN2S(=O)(=O)c1ccc(-c2cnc(C3CC3)o2)cc1`, the IC50 in [1] is 112 nM; in [4] it was 82 nM; in data set [2] it was 55 nM; in data set [3], 39 nM. Besides, the inhibition result in [5], in [6], in [7] and in [8] was “Active” in each case.

As to `CCc1ncc(-c2ccc(S(=O)(=O)N3CCc4ccccc43)cc2)o1`, the IC50 in data set [1] is 309 nM; in data set [2], greater than 100000 nM; in [3], 154 nM.

The values above are taken from ChEMBL document CHEMBL3352147, “Synthesis and structure-activity relationship of 4-azaheterocycle benzenesulfonamide derivatives as new microtubule-targeting agents” (Bioorg Med Chem Lett, 2014).
